Patent US20250025451A1, “TREATMENT OF CANCER WITH KDM4 INHIBITORS” (Celgene Corporation, priority 2021, published 2025)

Experiments:
[1] = system: SU60 patient-derived colon cancer organoid model; test: organoid colony formation and viability assay, SU60; format: cell-based, human
Experimental: (§1) The IC50 values for Compound 1 inhibition of colony formation and viability were determined for the patient-derived colon cancer organoid models: SU60, T002C, SU62, SU34, SU103, T03SC, and SU106, patient-derived pancreatic cancer organoid models PA016SF, PA0143F, T016P, and T028P, and a patient-derived breast cancer organoid model FS5S3.
(§2) Colony formation and viability assays were performed in multiwell plates seeded with organoids using an in vitro culture system composed of a Matrigel layer, media containing a defined set of growth factors, and co-culture with Wnt3 A-secreting mouse embryonic fibroblasts. Assays were initiated by adding either DMSO as a negative control, or an inhibitor panobinostatat 100×IC50 concentration as a positive control, or serially diluted Compound 1. The cultures were incubated for 168 or 144 hours after which the number of viable organoids in each test well was assessed respectively using one of two detection methods: CTG or staining with calcein-AM followed by imaging and colony counting. Colony count or viability of cells treated with compound 1 was expressed as a percent of the negative control. Aggregated Percent of Control values were plotted against the corresponding Compound 1 concentration and the absolute IC50 value was determined from a non-linear regression curve as the concentration where inhibition was 50% of the control.
The colony formation inhibition assays were performed in multiwell plates seeded with SU60 organoids. The cultures were incubated for 168 hours after which the number of colonies was assessed by staining with calcein AM followed by imaging and colony counting. Colony counts were expressed as a percent of the negative control and aggregated Percent of Control values were plotted against the corresponding Compound 1 concentration. A curve was fitted using non-linear regression.

[2] = system: tumor initiating cells of SU60 xenograft tumors; test: functional in vivo tumorigenicity assay (limiting dilution assay); set-up: species or system mice
Experimental: The ability of Compound 1 to affect tumorigenic potential was analyzed by flow cytometry analysis of the tumorigenic cell population and functional in vivo tumorigenicity assay (limiting dilution assay).
To assess the effect of Compound 1 on tumorigenic cell population, Compound 1 was used to treat SU60 xenograft tumors. NSG female mice engrafted with SU60 cells (7 mice each group) were administered Compound 1 at 40 mg/kg PO QD×21. The day after the last dose, three tumors nearest to the mean size from each group were dissociated and the single cells were used to perform: 1) flow cytometry analysis of the tumorigenic cell population and 2) functional in vivo tumorigenicity assay (limiting dilution assay). Flow Cytometry Analysis of Tumorigenic Cell Population after Compound 1 Treatment
To study the effect of Compound 1 on tumor initiating cell (TIC) frequency in CRC tumors, we evaluated the tumorigenic potential of SU60 xenograft cells posttreatment with Compound 1 or vehicle. At the end of dosing, SU60 dissociated cells from three animals per group nearest to the mean size were injected in a limiting dilution manner into recipient NSG mice and tumor volumes were measured. The number of cells required for tumor formation was reduced in the Compound 1-treated group. The reduction in TIC frequency was 4.4-fold (FIG. 17 and Table 10). Differentiation of progenitor cells is a potential explanation for this reduction.

[3] = system: SU62 patient-derived colon cancer organoid model; test: organoid colony formation assay, SU62; format: cell-based, human
Experimental: as §1, §2

[4] = system: PA0143F patient-derived pancreatic cancer organoid model; test: organoid colony formation assay, PA0143F; format: cell-based, human
Experimental: as §1, §2

MCF-7 = test: cell-proliferation assay (MTS), MCF-7; format: cell-based; conditions: MCF-7, human breast carcinoma
Experimental: Compound 1 was evaluated in in vitro cell-proliferation assays (BrdU assay, MTS assay, or Cell Titer Glo (CTG) assay) in multiple cancer cell lines and patient-derived organoid models to determine half-maximal inhibitory concentrations (IC50s).
Viability and BrdU thymidine incorporation assays were performed in multiwell plates seeded with cells in growth medium. After seeding, multiwell plates were cultured for 24 hours in a humidified incubator at 37° C. to promote adherence. […] The cultures were incubated for 168 hours after which the number of viable cells or the amount of thymidine incorporation in each test well was assessed by the methods as indicated above. Readouts were performed using an EnVision® Multilabel Reader (PerkinElmer, Waltham, MA) and the results were expressed as a percent of the negative control. Percent of Control values were plotted against the corresponding Compound 1 concentration and the relative IC50 value was determined from a non-linear regression curve as the concentration where inhibition was half-maximal. For cell lines where the number of IC50 determinations exceeded one, the IC50 was expressed as the mean IC50±SD.
Half-maximal inhibitory concentration (IC50) values for Compound 1 inhibition of cell proliferation were determined for nine cancer cell lines and one normal human fibroblastcell line.

[5] = SU60 cells from tumors treated 40 mg/kg QD, injected into recipient NSG mice, 50 cells
[6] = SU60 cells from tumors treated 40 mg/kg QD, injected into recipient NSG mice, 500 cells
[7] = SU60 cells from tumors treated 40 mg/kg QD, injected into recipient NSG mice, 1000 cells

CC(C)c1ccc(N(C)c2ccc3c(c2)OCC[C@H]3CNc2cnccc2C(=O)O)cc1 [Compound 1, 3-({[(4R)-7-{methyl[4-(propan-2-yl)phenyl]amino}-3,4-dihydro-2H-1-benzopyran-4-yl]methyl}amino)pyridine-4-carboxylic acid]
IC50 ([1]; Homo sapiens, SU60 colorectal carcinoma model, colony formation and viability assays): < 150 nM | IC50 ([1]; SU60 human colorectal carcinoma organoid, 144 hrs, Colony Counts): 64 nM | IC50 ([1]; SU60 human colorectal carcinoma organoid, 168 hrs, CTG): 23 nM | Mean Tumor Volume (50 cells) [2, 5]: 209 mm^3 | Tumor Take Rate (50 cells) [2, 5]: 3/10 | Mean Tumor volume (500 cells) [2, 6]: 589 mm^3 | Tumor Take Rate (500 cells) [2, 6]: 5/10 | Mean Tumor Volume (1000 cells) [2, 7]: 830 mm^3 | Tumor Take Rate (1000 cells) [2, 7]: 7/10 | reduction in TIC frequency ([2]; SU60 xenograft, 40 mg/kg PO QD x21, vs vehicle): 4.4 fold | IC50 ([3]; Homo sapiens, SU62 colorectal carcinoma model): < 150 nM | IC50 ([3]; SU62 human colorectal carcinoma organoid, 144 hrs, Colony Counts): 149 nM | IC50 ([4]; Homo sapiens, PA0143F pancreatic carcinoma model): > 10 µM | IC50 ([4]; PA0143F human pancreatic carcinoma organoid, 144 hrs, Colony Counts): > 10 µM | IC50 (MCF-7; Homo sapiens, MCF7, 168 h): < 40 nM | IC50 (MCF-7; 168 hours): 37 nM
